Test results from PubChem BioAssay AID1963967 (Molecular Pharmacology Branch, DTP, NCI, 2024).
pIC50: −log10 of the molar value.

Tested on: 855422-203-R-J1-PDC spheroids with HUVEC/MSC, viability
Test: Anticancer human tumor 855422-203-R-J1-PDC patient-derived bladder carcinoma cell line growth inhibition [PI3K]
Conditions: for pIC50: curve of first compound; for viability, T/C: stronger effect = lower value
Summary of the method: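 Spheroid viability read-out. Co-cultures contained the tumor line plus HUVEC and human MSCs. Each agent was paired with a PI3K inhibitor (inavolisib, alpelisib, duvelisib, copanlisib) across half-log dilutions starting at clinical Cmax, or at 10 microM when Cmax was unknown.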
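Also: agents incubated with spheroids for one week before read-out.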
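For viability, T/C in this document: 100% = DMSO vehicle-treated control wells.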

Cn1ncc(Cl)c1-c1cc(C(=O)NC(CN)Cc2cccc(F)c2)sc1Cl (configuration not stated) + CC(Nc1ncnc2nc[nH]c12)c1cc2cccc(Cl)c2c(=O)n1-c1ccccc1
pIC50 (second compound 0.0316 µM): 6.24 | pIC50 (second compound 0.1 µM): 6.15 | pIC50 (second compound 0.316 µM): 6.20 | pIC50 (second compound 1 µM): 6.16 | pIC50 (second compound 3.16 µM): 6.34 | pIC50 (second compound 10 µM): 6.39 | viability, T/C (second compound 0.0316 µM, first compound 0.0316 µM): 98.1% | viability, T/C (second compound 0.0316 µM, first compound 0.1 µM): 78.2% | viability, T/C (second compound 0.0316 µM, first compound 0.316 µM): 58% | viability, T/C (second compound 0.0316 µM, first compound 1 µM): 41.9% | viability, T/C (second compound 0.0316 µM, first compound 3.16 µM): 25.4% | viability, T/C (second compound 0.0316 µM, first compound 10 µM): 9.19% | viability, T/C (second compound 0.1 µM, first compound 0.0316 µM): 95.2% | viability, T/C (second compound 0.1 µM, first compound 0.1 µM): 84.5% | viability, T/C (second compound 0.1 µM, first compound 0.316 µM): 59.3% | viability, T/C (second compound 0.1 µM, first compound 1 µM): 46.4% | viability, T/C (second compound 0.1 µM, first compound 3.16 µM): 25.1% | viability, T/C (second compound 0.1 µM, first compound 10 µM): 8.79% | viability, T/C (second compound 0.316 µM, first compound 0.0316 µM): 92.2% | viability, T/C (second compound 0.316 µM, first compound 0.1 µM): 74.7% | viability, T/C (second compound 0.316 µM, first compound 0.316 µM): 55.5% | viability, T/C (second compound 0.316 µM, first compound 1 µM): 48.3% | viability, T/C (second compound 0.316 µM, first compound 3.16 µM): 25.9% | viability, T/C (second compound 0.316 µM, first compound 10 µM): 6.18% | viability, T/C (second compound 1 µM, first compound 0.0316 µM): 79.8% | viability, T/C (second compound 1 µM, first compound 0.1 µM): 75.4% | viability, T/C (second compound 1 µM, first compound 0.316 µM): 62.1% | viability, T/C (second compound 1 µM, first compound 1 µM): 45% | viability, T/C (second compound 1 µM, first compound 3.16 µM): 22.5% | viability, T/C (second compound 1 µM, first compound 10 µM): 10% | viability, T/C (second compound 3.16 µM, first compound 0.0316 µM): 87.5% | viability, T/C (second compound 3.16 µM, first compound 0.1 µM): 75.3% | viability, T/C (second compound 3.16 µM, first compound 0.316 µM): 52.4% | viability, T/C (second compound 3.16 µM, first compound 1 µM): 39.5% | viability, T/C (second compound 3.16 µM, first compound 3.16 µM): 21.9% | viability, T/C (second compound 3.16 µM, first compound 10 µM): 8.05% | viability, T/C (second compound 10 µM, first compound 0.0316 µM): 83.4% | viability, T/C (second compound 10 µM, first compound 0.1 µM): 71.8% | viability, T/C (second compound 10 µM, first compound 0.316 µM): 52.5% | viability, T/C (second compound 10 µM, first compound 1 µM): 36.9% | viability, T/C (second compound 10 µM, first compound 3.16 µM): 20.1% | viability, T/C (second compound 10 µM, first compound 10 µM): 5.58%
